Laboratory results published in PubChem BioAssay (NCI).
Several values for one entry are separate records, joined by “and”; a condition that tells them apart may be missing. Equal values may be shown once.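 Tested at 5 concentrations; 48 h exposure; 96-well plates; endpoints linearly interpolated, else capped at highest concentration. At the GI50, growth is halved. TGI is the concentration that stops growth completely.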

What was measured:
Test in all cases: NCI anticancer screen, dose series, 48 h
[1] = test system: 786-0 renal
[2] = test system: CCRF-CEM leukemia
[3] = test system: HCC-2998 colon
[4] = test system: IGROV1 ovarian
[5] = test system: KM12 colon
[6] = test system: M14 melanoma
[7] = test system: NCI-H522 lung
[8] = test system: RPMI-8226 leukemia
[9] = test system: SK-MEL-28 melanoma
[10] = test system: SR leukemia
[11] = test system: A498 renal
[12] = test system: DU-145 prostate
[13] = test system: HOP-92 NSCLC
[14] = test system: MCF7 breast
[15] = test system: PC-3 prostate
[16] = test system: T-47D breast
[17] = test system: MDA-MB-435

## O=C1C(Cl)C(c2ccccc2Cl)N1n1cnc2ccccc2c1=O (centres undefined)
[1]
  TGI: > 100 µM
[2]
  TGI: > 100 µM
[3]
  TGI: > 100 µM
[4]
  TGI: > 100 µM
[5]
  TGI: > 100 µM
[6]
  TGI: > 100 µM
[7]
  TGI: 85.2 µM
[8]
  TGI: > 100 µM
[9]
  TGI: > 100 µM
[10]
  TGI: > 100 µM

## N=S(c1ccccc1[N+](=O)[O-])c1ccccc1[N+](=O)[O-]
[1]
  TGI: 3.93 µM and 4.67 µM
[11]
  TGI: 43.5 µM and 32.2 µM
[2]
  TGI: 7.79 µM and 2.7 µM
[12]
  TGI: 7.38 µM
[3]
  TGI: 7.11 µM and 9.66 µM
[13]
  TGI: 4.02 µM and 4.39 µM
[4]
  TGI: 4.49 µM and 6.5 µM
[5]
  TGI: 7.31 µM and 16.7 µM
[6]
  TGI: 8.88 µM and 16.4 µM
[14]
  TGI: 0.266 µM
[7]
  TGI: 1.2 µM and 1.1 µM
[15]
  TGI: 2.98 µM
[8]
  GI50: 3.93 µM
  TGI: 4.47 µM and 18.8 µM
[9]
  TGI: 10.9 µM and 11.3 µM
[16]
  TGI: 0.934 µM

## Cc1cc(Cl)ccc1NC(=O)/C(=N\NC(C)(C)C)C(C#N)c1nc(-c2ccc([N+](=O)[O-])cc2)cs1 (centres undefined)
[1]
  TGI: > 100 µM
[11]
  TGI: > 100 µM
[2]
  TGI: > 100 µM
[3]
  TGI: > 100 µM
[13]
  TGI: > 100 µM
[4]
  TGI: > 100 µM
[5]
  TGI: > 100 µM
[6]
  TGI: > 100 µM
[7]
  TGI: > 100 µM
[8]
  TGI: > 100 µM
[9]
  TGI: > 100 µM
[10]
  TGI: > 100 µM

## CCc1cccc(C(C)C)c1NC(=O)/C(=N\NC(N)=O)C(C(=O)OC)c1cnc2ccccc2n1 (centres undefined)
[1]
  TGI: > 100 µM
[11]
  TGI: > 100 µM
[2]
  TGI: > 100 µM
[3]
  TGI: > 100 µM
[4]
  TGI: > 100 µM
[5]
  TGI: > 100 µM
[6]
  TGI: > 100 µM
[7]
  TGI: 71.9 µM
[9]
  TGI: > 100 µM
[10]
  TGI: > 100 µM

## CCOC(=O)C(C)NC(=O)NC12CC3CC(CC(F)(C3)C1)C2 (centres undefined)
[1]
  TGI: > 100 µM
[11]
  TGI: > 100 µM
[2]
  TGI: > 100 µM
[3]
  TGI: > 100 µM
[13]
  TGI: 56.2 µM
[4]
  TGI: > 100 µM
[5]
  TGI: > 100 µM
[6]
  TGI: > 100 µM
[7]
  TGI: > 100 µM
[8]
  TGI: > 100 µM
[9]
  TGI: > 100 µM

## CC(=O)NC(CCCCNCc1ccccc1)C(=O)NCc1ccccc1 (centres undefined)
[1]
  TGI: > 100 µM
[11]
  TGI: > 100 µM
[2]
  TGI: > 100 µM
[3]
  TGI: > 100 µM
[13]
  TGI: > 100 µM
[4]
  TGI: > 100 µM
[5]
  TGI: > 100 µM
[6]
  TGI: > 100 µM
[7]
  TGI: > 100 µM
[8]
  TGI: > 100 µM
[9]
  TGI: > 100 µM

## COC(=O)C(Cc1nc2ccc(Cl)cc2[nH]c1=O)C(=O)C(=O)Nc1cc(C)ccc1C (centres undefined)
[1]
  TGI: > 100 µM
[11]
  TGI: > 100 µM
[2]
  TGI: > 100 µM
[3]
  TGI: > 100 µM
[4]
  TGI: > 100 µM
[5]
  TGI: > 100 µM
[6]
  TGI: > 100 µM
[7]
  TGI: > 100 µM
[8]
  TGI: > 100 µM
[9]
  TGI: > 100 µM
[10]
  TGI: > 100 µM

## CN(C)CC1(C)CC/C(=C\c2ccc(Cl)cc2)C1=O (centres undefined)
[1]
  TGI: > 100 µM
[11]
  TGI: > 100 µM
[2]
  TGI: 68.4 µM
[3]
  TGI: > 100 µM
[13]
  TGI: > 100 µM
[4]
  TGI: > 100 µM
[5]
  TGI: 80.3 µM
[6]
  TGI: > 100 µM
[7]
  TGI: 33.1 µM
[8]
  TGI: 43.4 µM
[9]
  TGI: > 100 µM

## Cc1ccc(NC(=O)C2C3C=CC(O3)C2C(=O)O)cc1 (centres undefined)
[1]
  TGI: > 100 µM
[11]
  TGI: > 100 µM
[2]
  TGI: > 100 µM
[3]
  TGI: > 100 µM
[13]
  TGI: > 100 µM
[4]
  TGI: > 100 µM
[6]
  TGI: > 100 µM
[7]
  TGI: > 100 µM
[8]
  TGI: 54.7 µM
[9]
  TGI: > 100 µM
[10]
  TGI: > 100 µM

## O=C(NC(CS)C(=O)O)c1c2ccccc2nc2ccccc12 (centres undefined)
[1]
  TGI: > 100 µM
[11]
  TGI: > 100 µM
[2]
  TGI: > 100 µM
[12]
  TGI: > 100 µM
[3]
  TGI: > 100 µM
[13]
  TGI: > 100 µM
[4]
  TGI: > 100 µM
[5]
  TGI: > 100 µM
[6]
  TGI: > 100 µM
[14]
  TGI: > 100 µM
[17]
  TGI: 16 µM
[7]
  TGI: > 100 µM
[15]
  TGI: > 100 µM
[8]
  TGI: > 100 µM
[9]
  TGI: > 100 µM
[10]
  TGI: > 100 µM

## O=C1/C(=C/c2ccccc2Cl)COc2ccc(Br)cc21
[1]
  TGI: > 100 µM
[11]
  TGI: > 100 µM
[2]
  TGI: > 100 µM
[3]
  TGI: > 100 µM
[13]
  TGI: > 100 µM
[4]
  TGI: > 100 µM
[5]
  TGI: > 100 µM
[7]
  TGI: 80.1 µM
[9]
  TGI: > 100 µM

## Cc1ccc(S(=O)(=O)N(CCN)c2cc3c4c(c2)Oc2cccc5c2C4c2c(cccc2O3)O5)cc1
[1]
  TGI: 30.2 µM
[11]
  TGI: > 100 µM
[2]
  TGI: 57.9 µM
[3]
  TGI: > 100 µM
[13]
  TGI: 70.8 µM
[4]
  TGI: 23.7 µM
[5]
  TGI: > 100 µM
[6]
  TGI: 66.6 µM
[14]
  TGI: 47.8 µM
[17]
  TGI: 60.3 µM
[15]
  TGI: 35.7 µM
[8]
  TGI: > 100 µM
[9]
  TGI: 66.3 µM
[10]
  TGI: > 100 µM

## CC(=O)NC(CCCNC(=O)N(C)N=O)C(=O)NCc1ccccc1 (centres undefined)
[1]
  TGI: > 100 µM
[11]
  TGI: > 100 µM
[2]
  TGI: > 100 µM
[3]
  TGI: > 100 µM
[13]
  TGI: > 100 µM
[4]
  TGI: > 100 µM
[5]
  TGI: > 100 µM
[6]
  TGI: > 100 µM
[7]
  TGI: > 100 µM
[8]
  TGI: > 100 µM
[9]
  TGI: > 100 µM

## CCOC(=O)c1c(NC(=S)Nc2ccccc2)sc2c1CCN(C)C2
[1]
  TGI: > 100 µM
[11]
  TGI: > 100 µM
[2]
  TGI: > 100 µM
[12]
  TGI: > 100 µM
[4]
  TGI: > 100 µM
[5]
  TGI: > 100 µM
[6]
  TGI: > 100 µM
[14]
  TGI: > 100 µM
[15]
  TGI: > 100 µM
[8]
  TGI: > 100 µM
[16]
  TGI: > 100 µM

## Cc1cc(N(CCC#N)CCC#N)ccc1/C=C1N=C(/C=C\c2ccccc2)N(NC(=O)CC(=O)Nc2ccccc2Cl)C\1=O
[1]
  TGI: > 100 µM
[11]
  TGI: > 100 µM
[2]
  TGI: > 100 µM
[13]
  TGI: > 100 µM
[4]
  TGI: > 100 µM
[5]
  TGI: > 100 µM
[6]
  TGI: > 100 µM
[7]
  TGI: > 100 µM
[8]
  TGI: > 100 µM
[9]
  TGI: > 100 µM

## COc1c(Sc2c(SCSc3cnc4ccccc4c3Sc3cnc4ccccc4c3OC)cnc3ccccc23)cnc2ccccc12
[1]
  TGI: > 100 µM
[2]
  TGI: > 100 µM
[12]
  TGI: > 100 µM
[3]
  TGI: > 100 µM
[13]
  TGI: 84 µM
[4]
  TGI: > 100 µM
[5]
  TGI: > 100 µM
[6]
  TGI: > 100 µM
[17]
  TGI: > 100 µM
[7]
  TGI: > 100 µM
[15]
  TGI: > 100 µM
[8]
  TGI: > 100 µM
[9]
  TGI: > 100 µM
[10]
  TGI: 56.7 µM
[16]
  TGI: > 100 µM

## CC(=O)C1C(=O)C(=O)N(c2ccc([N+](=O)[O-])cc2[N+](=O)[O-])C1=O (centres undefined)
[1]
  TGI: > 100 µM
[2]
  TGI: > 100 µM
[12]
  TGI: > 100 µM
[3]
  TGI: > 100 µM
[13]
  TGI: > 100 µM
[4]
  TGI: > 100 µM
[5]
  TGI: > 100 µM
[6]
  TGI: > 100 µM
[14]
  TGI: > 100 µM
[17]
  TGI: > 100 µM
[7]
  TGI: > 100 µM
[15]
  TGI: > 100 µM
[9]
  TGI: > 100 µM

## Brc1ccc(-c2[nH]c3ccccc3c2/C=N\Nc2ccc(-c3nc4ccccc4[nH]3)cc2)cc1
[1]
  TGI: > 42 µM
[2]
  TGI: > 68.6 µM
[12]
  TGI: > 31.8 µM
[3]
  TGI: < 0.01 µM
[4]
  TGI: > 88.3 µM
[5]
  TGI: > 100 µM
[6]
  TGI: > 100 µM
[14]
  TGI: > 100 µM
[7]
  TGI: < 0.01 µM
[15]
  TGI: > 100 µM
[8]
  TGI: 25.4 µM
[16]
  TGI: > 100 µM
